Values joined by “and” are separate entries in the source; they are usually repeats but may differ in a detail not shown here. Identical values can stand only once.
Columns and labels:
ACE8/8 mice [1] = assay: Kaplan-Meier survival analysis of ACE8/8 mice (sudden cardiac death); format: in vivo, mouse; details: 1.5 mg/kg intraperitoneal twice weekly, 30 days of treatment and observation, untreated ACE8/8 10.2±1.5 days
Experimental: Previously, a transgenic mouse model of RAS activation was developed by overexpressing ACE restricted to the heart (ACE8/8 mice) via replacement of the somatic ACE promoter with the cardiac-specific α-myosin heavy chain promoter (9). These mice (ACE8/8) are not hypertensive, have structurally normal hearts with a normal left ventricular ejection fraction (LVEF), and have no ventricular fibrosis.
(§1) The animal experiments were conducted according to the National Institutes of Health (NIH) Guide for the Care and Use of Experimental Animals and were approved by the University of Illinois Institutional Animal Care and Use Committee. Mice of both sexes were treated with 1.5-mg/kg PP1 (Enzo Life Sciences, Plymouth Meeting, Pa.), a specific inhibitor of c-Src tyrosine kinase, twice weekly for 4 consecutive weeks by intraperitoneal injection (21-23). PP3 (Enzo Life Sciences) was administered intraperitoneally at the same dose (1.5 mg/kg twice weekly for 4 consecutive weeks). The treatment of all animals was initiated when the mice were 30 days old.
The values are presented as the mean±the SEM. […] The survival data were analyzed with the Kaplan-Meier method, and the value was calculated with the log-rank test. The correlation was assessed with the Pearson correlation coefficient method.

wild-type mice = assay: Treatment of wild-type mice with PP1 (deaths, adverse reactions); format: in vivo, mouse
Experimental: as §1

ACE8/8 mice [2] = assay: Electrophysiology study: VT inducibility by burst pacing; format: in vivo, mouse; details: treated ACE8/8 mice, untreated ACE8/8 86.9%, wild-type 3.3%
Experimental: as §1
The mice were anesthetized with an intraperitoneal injection of ketamine (100 mg/kg) and xylazine (5 mg/kg). After cutdown, a 1.1-F catheter with 0.5-mm interelectrode spacing (EPR 800, Millar Instruments, Houston, Tex.) was placed into the right jugular vein and was advanced into the right ventricle. A constant current stimulator (A320, World Precision Instruments, Sarasota, Fla.) connected to a laptop computer was used for cardiac stimulation. During the experiment, body temperature was maintained at 37° C. with a warming pad. Burst pacing at cycle lengths of 100 to 50 ms was used to test for VT inducibility. A rhythm with more than 3 consecutive ventricular beats was considered to be VT.

c-Src = target: T1, c-Src (Mus musculus, UniProt P05480); assay: Western blot of ventricular tissue, total c-Src; format: in vivo; details: four weeks i.p. treatment, corrected for GAPDH
T1 construct: The ventricular tissue was homogenized in a buffer; from tissue; host or cells: mouse ventricular tissue (wild-type and ACE8/8 mice)
Experimental: as §1
(§2) The mice were killed, and their hearts were excised. The ventricular tissue was homogenized in a buffer containing 20 mM of tris-(hydroxymethyl)-aminomethane (Tris-C1) (pH, 7.4), 150 mM of sodium chloride (NaCl), 2.5 mM of ethylenediamine tetraacetic acid (EDTA), 1% Triton-100, 10 μL/mL of phenylmethylsulfonyl fluoride (PMSF), 10 μL/mL of protein inhibitor cocktail (Pierce, Rockford, Ill.), and 10 μL/mL of phosphatase inhibitor cocktail II (Sigma-Aldrich, St. Louis, Mo.). Protein samples (5 to 20 μg) were separated via 10% sodium dodecyl sulfate polyacrylamide gel electrophoresis (SDS-PAGE) and were transferred to nitrocellulose membranes. […] The radiographic film images were scanned and analyzed with NIH ImageJ software.

[3] = target: T2, phosphorylated (Tyr 416) c-Src (Mus musculus, UniProt P05480); assay: Western blot of ventricular tissue, phospho-(Tyr416) c-Src; format: in vivo; details: four weeks i.p. treatment, corrected for GAPDH
T2 construct: The ventricular tissue was homogenized in a buffer; from tissue; host or cells: mouse ventricular tissue (wild-type and ACE8/8 mice)
Experimental: as §1, §2

Cx43 [4] = assay: Western blot of ventricular tissue, Cx43; format: in vivo, mouse
Experimental: as §1
The mice were killed, and their hearts were excised. The ventricular tissue was homogenized in a buffer containing 20 mM of tris-(hydroxymethyl)-aminomethane (Tris-C1) (pH, 7.4), 150 mM of sodium chloride (NaCl), 2.5 mM of ethylenediamine tetraacetic acid (EDTA), 1% Triton-100, 10 μL/mL of phenylmethylsulfonyl fluoride (PMSF), 10 μL/mL of protein inhibitor cocktail (Pierce, Rockford, Ill.), and 10 μL/mL of phosphatase inhibitor cocktail II (Sigma-Aldrich, St. Louis, Mo.). Protein samples (5 to 20 μg) were separated via 10% sodium dodecyl sulfate polyacrylamide gel electrophoresis (SDS-PAGE) and were transferred to nitrocellulose membranes. The membranes were blotted with the primary antibodies against c-Src, phosphorylated (Tyr 416) c-Src, and Cx43 (Cell Signaling, Danvers, Mass.). For a loading control, the membranes were blotted with a primary antibody against glyceraldehyde-3-phosphate dehydrogenase (GAPDH; Santa Cruz Biotech, Santa Cruz, Calif.). After treatment with secondary antirabbit or antimouse antibodies, imaging was performed with enhanced chemiluminescence. The radiographic film images were scanned and analyzed with NIH ImageJ software.

Cx43 [5] = assay: Immunohistochemistry (immunostaining) for Cx43 in mouse hearts; format: in vivo
Experimental: as §1
The mouse hearts were fixed in 10% formalin, after which 8-μm thick sections were blocked for 1 hour at room temperature and were then incubated with anti-Cx43 antibodies overnight at 4° C. at concentrations known to provide the best signal-to-noise ratio. The slides were reviewed with a Zeiss Axioskop microscope (Carl Zeiss, Inc, Thornwood, N.Y.), and photomicrographs with original magnification×40 were taken from the apex, the mid-left ventricle (LV), and the LV base. From each of those sites, photomicrographs were taken from the endocardium and epicardium. The Cx43 content was quantified with the use of a grid that divided the field of view into 200 squares. At the intersection points aligning with the intercalated disks, Cx43 was scored as “1” (present) or “0” (absent). The results were expressed as the percentage occupied by Cx43 in the total area examined, excluding pseudospaces. This method has been used previously to quantify levels of collagen and Cx43 in cardiac tissue (24; 25).

gap junctions = assay: Functional assessment of Cx43: Lucifer yellow dye spread in intact heart muscle; format: in vivo, mouse; details: hearts of treated ACE8/8 mice
Experimental: as §1
We used an established technique for measuring Cx43 function that involves fluorescent dye introduction and diffusion in intact heart muscle (26). Fresh hearts were obtained from wild-type, ACE8/8, ACE8/8 PP1-treated, and ACE8/8 PP3-treated mice. A sample from each heart was placed in phosphate buffered saline at 37° C., the anterior surface of the LV was punctured with a 27-gauge needle, and the sample was incubated with a droplet of 0.5% Lucifer yellow (LY) and a droplet of 0.5% Texas Red Dextran (TRD) in 150 mM of LiCl solution. […] Dye spread in longitudinal and transverse directions was assessed.

T1 sequence (P05480 whole entry): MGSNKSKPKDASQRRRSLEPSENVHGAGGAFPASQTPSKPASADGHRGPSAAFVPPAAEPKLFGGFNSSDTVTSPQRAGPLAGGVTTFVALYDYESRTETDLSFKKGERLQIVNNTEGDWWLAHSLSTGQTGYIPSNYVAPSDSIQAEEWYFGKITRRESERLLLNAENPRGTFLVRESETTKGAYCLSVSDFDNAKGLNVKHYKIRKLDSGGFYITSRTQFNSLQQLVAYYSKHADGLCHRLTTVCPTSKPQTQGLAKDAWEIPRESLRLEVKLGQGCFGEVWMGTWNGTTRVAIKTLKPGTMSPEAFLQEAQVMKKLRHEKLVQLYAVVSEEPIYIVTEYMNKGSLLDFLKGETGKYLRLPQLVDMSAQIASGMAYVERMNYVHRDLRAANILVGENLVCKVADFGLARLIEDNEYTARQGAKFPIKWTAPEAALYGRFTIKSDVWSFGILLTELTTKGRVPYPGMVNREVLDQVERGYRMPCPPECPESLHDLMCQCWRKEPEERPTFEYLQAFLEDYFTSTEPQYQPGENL
T2 sequence (P05480 whole entry): as above

SMILES	mean survival time (ACE8/8 mice [1])	death in treated wild-type mice (wild-type mice; WT mice receiving PP1 1.5 mg/kg i.p. twice weekly for 4 weeks)	adverse reaction in treated wild-type mice (wild-type mice; wild-type mice, PP1 1.5 mg/kg i.p. twice weekly for 4 weeks)	VT inducibility rate (ACE8/8 mice [2])	total c-Src protein level, relative to untreated ACE8/8 mice (c-Src)	phospho-(Tyr416) c-Src protein level, relative to untreated ACE8/8 mice [3]	increase in Cx43 protein level vs untreated ACE8/8 mice (Western blot) (Cx43 [4]; ACE8/8 mice, four weeks i.p. treatment)	Cx43 level relative to normal level in wild-type mice (Western blot) (Cx43 [4]; treated ACE8/8 mice, untreated ACE8/8 36%)	increase in Cx43 level/content in ACE8/8 mouse hearts (immunostaining) (Cx43 [5]; vs untreated ACE8/8 mice)	overall Lucifer yellow dye spread (gap junctions; untreated ACE8/8 0.14±0.01 mm, WT 0.21±0.02 mm)	effect on total Cx43 protein level (Western blot), in words (Cx43 [4]; ACE8/8 mice vs untreated ACE8/8)	Cx43 level, ratio of stained area for Cx43 to total field of view (Cx43 [5]; treated ACE8/8 mice, untreated ACE8/8 5.4±0.7%, wild-type 18.3±0.6%)	effect on Cx43 level at the gap junctions (immunostaining), in words (Cx43 [5]; vs untreated ACE8/8 mice)	effect on dye diffusion, in words (gap junctions)
Cc1ccc(-c2nn(C(C)(C)C)c3ncnc(N)c23)cc1 [PP1, 1-(1,1-dimethylethyl)-1-(4-methylphenyl)-1H-pyrazolo[3,4-d]pyrimidin-4-amine]	24.7 ± 0.2 days	No death happened	not associated with any adverse reaction	50%	58%	75%	2.1 fold	68%	2 fold and 2.0 fold	0.20±0.02 mm and 0.21±0.02 mm	–	–	–	–
Nc1ncnc2c1cnn2-c1ccccc1 [PP3, 1-phenyl-1H-pyrazolo[3,4-d]pyrimidin-4-amine]	11.2 ± 1.2 days	–	–	–	–	–	–	–	–	–	did not increase	6.5+/−1%	did not increase	no statistically significant effect
